# Assay results reported in ChEMBL document CHEMBL1687927, “Design and optimization of potent and orally bioavailable tetrahydronaphthalene Raf inhibitors” (J Med Chem, 2011).
# The source made the active and inactive calls. The rule behind the calls is not given here.
# Columns and labels:
# [1] = test system: Mus musculus; test: Plasma clearance in mouse at 1 mg/kg, iv and 10 mg, po in 10% HPbCD vehicle; format: ADME, organism-based; parameters: dose 1 mg/kg, route oral; settings: in vivo
# [2] = Oral bioavailability in mouse at 10 mg; format: ADME, organism-based; settings: in vivo
# [3] = AUC (0 to 24 hrs) in mouse at 10 mg, po in 10% HPbCD vehicle; format: ADME, organism-based; parameters: time < 24 hr, dose 10 mg, route oral; settings: plasma
# [4] = biological target: T1, Serine/threonine-protein kinase B-raf (Homo sapiens, UniProt P15056, V600E); test: Inhibition of raf kinase in human A375 cells assessed as decrease in MEK-mediated ERK phosphorylation after 3 hrs using 3,3',5,5'-tetramethylbenzidine liquid substrate system; format: cell-based; settings: a-375
# [5] = test system: Mus musculus; test: Volume of distribution at steady state in mouse at 1 mg/kg, iv or 10 mg, po; format: ADME, organism-based; parameters: dose 1 mg/kg, route oral; settings: in vivo
# [6] = biological target: T1, Serine/threonine-protein kinase B-raf
# [7] = biological target: RAF proto-oncogene serine/threonine-protein kinase (Homo sapiens, UniProt P04049); test: Inhibition of C-Raf assessed as reduction in [33P]ATP incorporation into biotinylated substrate peptide after 3 hrs by flash plate assay
# [8] = Plasma clearance in mouse at 10 mg, po in 20% HPbCD vehicle; format: ADME, organism-based
# [9] = AUC (0 to 24 hrs) in mouse at 10 mg, po in 20% HPbCD vehicle; format: ADME, organism-based; parameters: dose 10 mg, time < 24 hr, route oral; settings: plasma
# [10] = Plasma concentration in mouse xenografted with human A375M cells at 75 mg/kg, po administered as single dose in 10% HPbCD measured 4 hrs post dose by LC/MS/MS; format: ADME, organism-based; parameters: dose 75 mg/kg, route oral
# [11] = test system: Homo sapiens; test: Antitumor activity against human A375M cells xenografted mouse model assessed as partial tumor regression at 75 mg/kg, po qd for 21 days; format: functional, organism-based; parameters: dose 75 mg/kg
# [12] = test system: Mus musculus; test: Inhibition of ERK phosphorylation in human A375M cells xenografted in mouse at 75 mg/kg, po administered as single dose in 10% HPbCD measured 8 hrs post dose by Li-Cor quantitative Western blot analysis relative to control; format: functional
# [13] = Plasma concentration in mouse xenografted with human A375M cells at 75 mg/kg, po administered as single dose in 10% HPbCD measured 8 hrs post dose by LC/MS/MS; format: ADME, organism-based; parameters: dose 75 mg/kg, route oral
# [14] = Plasma concentration in mouse xenografted with human A375M cells at 75 mg/kg, po administered as single dose in 10% HPbCD measured 24 hrs post dose by LC/MS/MS; format: ADME, organism-based; parameters: dose 75 mg/kg, route oral
# [15] = Inhibition of MEK
# [16] = test system: Mus musculus; test: Inhibition of ERK phosphorylation in human A375M cells xenografted in mouse at 75 mg/kg, po administered as single dose in 10% HPbCD measured 4 hrs post dose by Li-Cor quantitative Western blot analysis relative to control; format: functional
# [17] = test system: Mus musculus; test: Inhibition of ERK phosphorylation in human A375M cells xenografted in mouse at 75 mg/kg, po administered as single dose in 10% HPbCD measured 24 hrs post dose by Li-Cor quantitative Western blot analysis relative to control; format: functional
# [18] = Inhibition of PDGFR
# [19] = Plasma concentration in mouse xenografted with human A375M cells at 100 mg/kg, po administered as single dose in 10% HPbCD measured 4 hrs post dose by LC/MS/MS; format: ADME, organism-based; parameters: dose 100 mg/kg, route oral
# [20] = test system: Plasma; test: Plasma concentration in mouse assessed as (R)-3-((methyl amino)methyl)-N-(7-(7-oxo-5,6,7,8-tetrahydro-1,8-naphthyridin-4-yloxyl)-1,2,3,4-tetrahydronaphthalen-2-yl )-5-(trifluoromethyl)benzamide at 10 mg, po; format: ADME, organism-based; settings: in vivo
# [21] = Plasma concentration in mouse xenografted with human A375M cells at 100 mg/kg, po administered as single dose in 10% HPbCD measured 8 hrs post dose by LC/MS/MS; format: ADME, organism-based; parameters: dose 100 mg/kg, route oral
# [22] = test system: Mus musculus; test: Inhibition of ERK phosphorylation in human A375M cells xenografted in mouse at 100 mg/kg, po administered as single dose in 10% HPbCD measured 4 hrs post dose by Li-Cor quantitative Western blot analysis relative to control; format: functional
# [23] = test system: Homo sapiens; test: Antitumor activity against human A375M cells xenografted mouse model assessed as partial tumor regression at 100 mg/kg, po qd for 21 days; format: functional, organism-based; parameters: dose 100 mg/kg
# [24] = test system: Mus musculus; test: Inhibition of ERK phosphorylation in human A375M cells xenografted in mouse at 100 mg/kg, po administered as single dose in 10% HPbCD measured 8 hrs post dose by Li-Cor quantitative Western blot analysis relative to control; format: functional
# [25] = Plasma concentration in mouse xenografted with human A375M cells at 100 mg/kg, po administered as single dose in 10% HPbCD measured 24 hrs post dose by LC/MS/MS; format: ADME, organism-based; parameters: dose 100 mg/kg, route oral
# [26] = test system: Mus musculus; test: Inhibition of ERK phosphorylation in human A375M cells xenografted in mouse at 100 mg/kg, po administered as single dose in 10% HPbCD measured 24 hrs post dose by Li-Cor quantitative Western blot analysis relative to control; format: functional
# T1 sequence (P15056 2-766 V600E limits assumed): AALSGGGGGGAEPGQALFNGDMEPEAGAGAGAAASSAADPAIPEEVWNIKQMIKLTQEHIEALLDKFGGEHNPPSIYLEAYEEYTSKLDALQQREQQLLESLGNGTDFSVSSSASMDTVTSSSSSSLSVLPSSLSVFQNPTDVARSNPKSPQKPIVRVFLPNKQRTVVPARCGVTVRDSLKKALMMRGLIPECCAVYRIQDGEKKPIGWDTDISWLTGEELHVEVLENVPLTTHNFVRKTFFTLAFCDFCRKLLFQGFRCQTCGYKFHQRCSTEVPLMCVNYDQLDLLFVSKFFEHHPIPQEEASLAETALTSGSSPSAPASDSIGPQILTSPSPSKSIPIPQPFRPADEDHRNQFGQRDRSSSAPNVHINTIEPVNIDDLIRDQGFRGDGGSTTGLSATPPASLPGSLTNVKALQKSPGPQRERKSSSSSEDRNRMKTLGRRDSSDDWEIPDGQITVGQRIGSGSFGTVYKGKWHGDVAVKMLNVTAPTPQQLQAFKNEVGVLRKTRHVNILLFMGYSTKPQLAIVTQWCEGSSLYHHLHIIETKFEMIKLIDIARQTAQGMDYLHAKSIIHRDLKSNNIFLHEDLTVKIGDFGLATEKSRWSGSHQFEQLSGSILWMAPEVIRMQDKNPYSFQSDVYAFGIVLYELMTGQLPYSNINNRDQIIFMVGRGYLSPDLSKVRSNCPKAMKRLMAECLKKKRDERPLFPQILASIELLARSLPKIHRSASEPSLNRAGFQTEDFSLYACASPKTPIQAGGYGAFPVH
# Chain of RAF proto-oncogene serine/threonine-protein kinase (P04049 whole entry): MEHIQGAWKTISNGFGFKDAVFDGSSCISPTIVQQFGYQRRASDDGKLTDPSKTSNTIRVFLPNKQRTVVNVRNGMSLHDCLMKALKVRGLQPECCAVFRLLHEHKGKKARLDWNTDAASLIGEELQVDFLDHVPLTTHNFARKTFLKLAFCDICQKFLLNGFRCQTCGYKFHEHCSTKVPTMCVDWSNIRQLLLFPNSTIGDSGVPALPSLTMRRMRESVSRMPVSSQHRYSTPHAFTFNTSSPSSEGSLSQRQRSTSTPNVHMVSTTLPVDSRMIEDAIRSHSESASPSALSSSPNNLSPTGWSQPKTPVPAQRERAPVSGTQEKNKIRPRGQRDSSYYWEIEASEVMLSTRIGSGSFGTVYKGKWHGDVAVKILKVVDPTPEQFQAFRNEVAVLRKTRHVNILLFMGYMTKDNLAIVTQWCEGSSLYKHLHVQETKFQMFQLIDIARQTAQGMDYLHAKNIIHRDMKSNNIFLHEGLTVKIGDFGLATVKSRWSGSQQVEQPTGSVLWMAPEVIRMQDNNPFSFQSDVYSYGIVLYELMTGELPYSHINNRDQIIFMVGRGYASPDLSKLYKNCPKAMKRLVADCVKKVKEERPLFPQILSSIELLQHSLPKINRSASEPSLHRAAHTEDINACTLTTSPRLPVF
Compound,bioavailability [2] [%],IC50 [4] [nM],Vdss [5] [L/kg],IC50 [6] [nM],IC50 [7] [nM],further results
CC(C)NCc1cc(NC(=O)[C@H]2CCc3ccc(Oc4ccnc5c4CCC(=O)N5)cc3C2)cc(C(F)(F)F)c1,20,110,3.87,3.3,–,CL [1]: 5.33 mL/min/kg; AUC(0-t) at 24 h [3]: 20.7 µM·h
CNC(=O)c1cc(Oc2ccc3c(c2)CC(C(=O)Nc2ccc(Cl)c(C(F)(F)F)c2)CC3)ccn1 (racemic),–,2900,–,32,28,–
NCc1cc(NC(=O)C2CCc3ccc(Oc4ccnc(NC(=O)C5CC5)c4)cc3C2)cc(C(F)(F)F)c1 (stereo unspecified),1.9,150,6.4,8,6.2,CL/F [8]: 6.67 mL/min/kg; AUC(0-t) at 24 h [9]: 0.58 µM·h
CN(C)Cc1cc(C(=O)N[C@H]2CCc3ccc(Oc4ccnc(NC(=O)C5CC5)c4)cc3C2)cc(C(F)(F)F)c1,–,1100,–,3.2,–,–
NCc1cc(NC(=O)[C@@H]2CCc3ccc(Oc4ccnc(NC(=O)C5CC5)c4)cc3C2)cc(C(F)(F)F)c1,–,780,–,6,6,–
NCc1cc(NC(=O)[C@H]2CCc3ccc(Oc4ccnc(NC(=O)C5CC5)c4)cc3C2)cc(C(F)(F)F)c1,–,130,–,5,4.5,–
CNC(=O)c1cc(Oc2cccc(CCC(=O)Nc3ccc(Cl)c(C(F)(F)F)c3)c2)ccn1,–,> 25000,–,47,9,–
CN(C)Cc1cc(C(=O)N[C@@H]2CCc3ccc(Oc4ccnc(NC(=O)C5CC5)c4)cc3C2)cc(C(F)(F)F)c1,22,70,2.19,2.9,–,CL [1]: 35.7 mL/min/kg; AUC(0-t) at 24 h [3]: 0.51 µM·h
CN(C)Cc1cc(NC(=O)[C@H]2CCc3ccc(Oc4ccnc(NC(=O)C5CC5)c4)cc3C2)cc(C(F)(F)F)c1,27,130,6.07,4,3.3,CL/F [8]: 23.5 mL/min/kg; AUC(0-t) at 24 h [9]: 2.87 µM·h
CNC(=O)c1cc(Oc2ccc(CCC(=O)Nc3ccc(Cl)c(C(F)(F)F)c3)cc2)ccn1,–,> 25000,–,61,10,–
CC(C)(N)c1cc(NC(=O)[C@H]2CCc3ccc(Oc4ccnc5c4CCC(=O)N5)cc3C2)cc(C(F)(F)F)c1,–,79,–,–,–,–
CNC(=O)c1cc(Oc2ccc3c(c2)CC(C(=O)Nc2cc(CN)cc(C(F)(F)F)c2)CC3)ccn1 (stereo unspecified),–,1400,–,20,11,–
CC(=O)Nc1cc(Oc2ccc3c(c2)C[C@@H](C(=O)Nc2cc(CN)cc(C(F)(F)F)c2)CC3)ccn1,–,–,–,–,6,–
CC(C)(N)c1cc(C(=O)N[C@@H]2CCc3ccc(Oc4ccnc5c4CCC(=O)N5)cc3C2)cc(C(F)(F)F)c1,85,–,3.93,–,–,concentration at 4 h [10]: 23 µM; CL [1]: 7.33 mL/min/kg; Activity [11]: Active; inhibition in vivo at 75 mg/kg [12]: 90%; concentration at 8 h [13]: 27 µM; concentration at 24 h [14]: 3 µM; IC50 [15]: 1400 nM; AUC(0-t) at 24 h [3]: 35.9 µM·h; inhibition in vivo at 75 mg/kg [16]: 87%; inhibition in vivo at 75 mg/kg [17]: 83%; IC50 [18]: 47 nM
CNC(=O)c1cc(Oc2ccc3c(c2)CC(C(=O)Nc2ccc(CN)c(C(F)(F)F)c2)CC3)ccn1 (stereo unspecified),–,5000,–,26,16,–
CC(C)NCc1cc(NC(=O)C2CCc3ccc(Oc4ccnc(NC(=O)C5CC5)c4)cc3C2)cc(C(F)(F)F)c1 (stereo unspecified),–,190,–,5,4.6,AUC(0-t) at 24 h [9]: 15.6 µM·h
CN(C)Cc1cc(C(=O)N[C@@H]2CCc3ccc(Oc4ccnc5c4CCC(=O)N5)cc3C2)cc(C(F)(F)F)c1,100,–,0.75,–,–,CL [1]: 3.83 mL/min/kg; concentration at 4 h [19]: 28 µM; Drug uptake [20]: 30%; concentration at 8 h [21]: 29 µM; IC50 [15]: > 10000 nM; inhibition in vivo at 100 mg/kg [22]: 93%; AUC(0-t) at 24 h [3]: 98.6 µM·h; IC50 [18]: 1100 nM; Activity [23]: Active; inhibition in vivo at 100 mg/kg [24]: 92%; concentration at 24 h [25]: 0.4 µM; inhibition in vivo at 100 mg/kg [26]: 72%
CNCc1cc(C(=O)N[C@@H]2CCc3ccc(Oc4ccnc5c4CCC(=O)N5)cc3C2)cc(C(F)(F)F)c1,50,–,0.75,–,–,CL [1]: 12.2 mL/min/kg; AUC(0-t) at 24 h [3]: 12.4 µM·h
